The results in this text go back to ChEMBL document CHEMBL4316588, “Design, Synthesis, and Biological Evaluation of Novel DNA Gyrase-Inhibiting Spiropyrimidinetriones as Potent Antibiotics for Treatment of Infections Caused by Multidrug-Resistant Gram-Positive Bacteria” (J Med Chem, 2019).

Molecules are shown by their SMILES. ≈ marks a conversion by molar mass, not a printed value. A value given as a limit tells only on which side of the number the result lay.

Data set [1] concerns the target DNA topoisomerase 2-alpha (Homo sapiens, UniProt P11388). The data set is described as follows: Inhibition of human topoisomerase-2alpha using catenated DNA as substrate after 30 mins by ethidium bromide-based gel electrophoresis.
The test system of data set [2] is Streptococcus pyogenes. Kind of data set: Antibacterial activity against Streptococcus pyogenes after 18 to 20 hrs by CLSI-protocol based broth microdilution method. It is filed as functional. The note with it: Streptococcus pyogenes; read-out: MIC. A general note: Broth dilution looks for growth in wells or tubes with falling amounts of substance.
For data set [3], the system named is Staphylococcus epidermidis. Kind of data set: Antibacterial activity against methicillin-resistant Staphylococcus epidermidis after 18 to 20 hrs by CLSI-protocol based broth microdilution method. It is filed as functional.
The subject of data set [4] is Staphylococcus aureus. Kind of data set: Antibacterial activity against methicillin-sensitive Staphylococcus aureus after 18 to 20 hrs by CLSI-protocol based broth microdilution method. It is filed as functional. The note with it: Staphylococcus aureus; read-out: MIC.
Data set [5] deals with Staphylococcus aureus. Kind of data set: Antibacterial activity against methicillin-resistant Staphylococcus aureus after 18 to 20 hrs by CLSI-protocol based broth microdilution method. It is filed as functional.
In data set [6] the test system is Streptococcus pneumoniae. Kind of data set: Antibacterial activity against penicillin-resistant Streptococcus pneumoniae after 18 to 20 hrs by CLSI-protocol based broth microdilution method. It is filed as functional.
The subject of data set [7] is Staphylococcus epidermidis. The data set is described as follows: Antibacterial activity against methicillin-sensitive Staphylococcus epidermidis after 18 to 20 hrs by CLSI-protocol based broth microdilution method. It is filed as functional.
Data set [8] deals with DNA gyrase (Staphylococcus aureus, UniProt P0A0K8+P20831).
Chain of DNA gyrase (P0A0K8 whole entry): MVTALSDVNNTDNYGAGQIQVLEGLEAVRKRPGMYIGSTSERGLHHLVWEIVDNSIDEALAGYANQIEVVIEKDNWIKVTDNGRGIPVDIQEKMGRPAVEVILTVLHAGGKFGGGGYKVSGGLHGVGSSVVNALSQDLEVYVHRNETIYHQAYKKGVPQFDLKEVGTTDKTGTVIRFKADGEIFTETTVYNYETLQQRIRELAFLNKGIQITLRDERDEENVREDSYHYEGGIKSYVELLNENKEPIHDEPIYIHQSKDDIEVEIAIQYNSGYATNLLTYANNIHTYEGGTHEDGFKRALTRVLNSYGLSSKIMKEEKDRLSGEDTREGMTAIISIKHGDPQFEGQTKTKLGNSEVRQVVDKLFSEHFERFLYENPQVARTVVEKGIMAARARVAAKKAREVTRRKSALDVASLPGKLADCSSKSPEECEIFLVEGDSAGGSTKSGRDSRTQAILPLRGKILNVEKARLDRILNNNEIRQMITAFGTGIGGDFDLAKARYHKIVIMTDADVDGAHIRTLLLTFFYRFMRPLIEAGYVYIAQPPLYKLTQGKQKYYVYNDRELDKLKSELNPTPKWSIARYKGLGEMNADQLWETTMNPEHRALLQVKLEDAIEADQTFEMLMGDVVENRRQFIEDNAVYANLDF
Chain of DNA gyrase (P20831 whole entry): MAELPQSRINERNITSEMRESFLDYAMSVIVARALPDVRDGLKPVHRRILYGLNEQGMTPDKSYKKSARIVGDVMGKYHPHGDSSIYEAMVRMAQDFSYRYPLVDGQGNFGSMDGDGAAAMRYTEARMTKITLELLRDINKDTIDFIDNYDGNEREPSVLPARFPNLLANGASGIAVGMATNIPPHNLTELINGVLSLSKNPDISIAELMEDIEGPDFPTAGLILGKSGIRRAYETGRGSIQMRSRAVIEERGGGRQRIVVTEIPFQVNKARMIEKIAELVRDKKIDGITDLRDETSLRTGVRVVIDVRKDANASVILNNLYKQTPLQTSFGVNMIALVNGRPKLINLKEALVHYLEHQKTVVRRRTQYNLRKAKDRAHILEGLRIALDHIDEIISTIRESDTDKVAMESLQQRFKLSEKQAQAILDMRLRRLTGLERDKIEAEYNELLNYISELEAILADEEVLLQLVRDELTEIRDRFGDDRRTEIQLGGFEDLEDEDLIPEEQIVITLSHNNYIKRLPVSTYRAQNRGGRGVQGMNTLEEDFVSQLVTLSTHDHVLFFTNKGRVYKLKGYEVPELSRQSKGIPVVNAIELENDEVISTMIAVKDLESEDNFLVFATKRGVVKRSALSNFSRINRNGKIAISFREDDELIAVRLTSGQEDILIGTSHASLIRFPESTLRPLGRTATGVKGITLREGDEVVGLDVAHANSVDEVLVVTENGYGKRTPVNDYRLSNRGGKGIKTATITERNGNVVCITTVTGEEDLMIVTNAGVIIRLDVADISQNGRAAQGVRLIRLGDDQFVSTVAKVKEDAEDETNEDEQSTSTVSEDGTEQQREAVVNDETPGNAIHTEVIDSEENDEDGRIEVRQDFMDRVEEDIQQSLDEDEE
Description: Inhibition of Staphylococcus aureus DNA gyrase supercoiling activity using relaxed pHOT-1 DNA as substrate after 60 mins by ethidium bromide-based gel electrophoresis
In data set [9] the target is Voltage-gated inwardly rectifying potassium channel KCNH2 (Homo sapiens, UniProt Q12809). The data set is described as follows: Inhibition of human ERG expressed in CHO cells in at -80 mV holding potential by automated Qpatch clamp assay. It is filed as cell-based.
Chain of Voltage-gated inwardly rectifying potassium channel KCNH2 (Q12809 whole entry): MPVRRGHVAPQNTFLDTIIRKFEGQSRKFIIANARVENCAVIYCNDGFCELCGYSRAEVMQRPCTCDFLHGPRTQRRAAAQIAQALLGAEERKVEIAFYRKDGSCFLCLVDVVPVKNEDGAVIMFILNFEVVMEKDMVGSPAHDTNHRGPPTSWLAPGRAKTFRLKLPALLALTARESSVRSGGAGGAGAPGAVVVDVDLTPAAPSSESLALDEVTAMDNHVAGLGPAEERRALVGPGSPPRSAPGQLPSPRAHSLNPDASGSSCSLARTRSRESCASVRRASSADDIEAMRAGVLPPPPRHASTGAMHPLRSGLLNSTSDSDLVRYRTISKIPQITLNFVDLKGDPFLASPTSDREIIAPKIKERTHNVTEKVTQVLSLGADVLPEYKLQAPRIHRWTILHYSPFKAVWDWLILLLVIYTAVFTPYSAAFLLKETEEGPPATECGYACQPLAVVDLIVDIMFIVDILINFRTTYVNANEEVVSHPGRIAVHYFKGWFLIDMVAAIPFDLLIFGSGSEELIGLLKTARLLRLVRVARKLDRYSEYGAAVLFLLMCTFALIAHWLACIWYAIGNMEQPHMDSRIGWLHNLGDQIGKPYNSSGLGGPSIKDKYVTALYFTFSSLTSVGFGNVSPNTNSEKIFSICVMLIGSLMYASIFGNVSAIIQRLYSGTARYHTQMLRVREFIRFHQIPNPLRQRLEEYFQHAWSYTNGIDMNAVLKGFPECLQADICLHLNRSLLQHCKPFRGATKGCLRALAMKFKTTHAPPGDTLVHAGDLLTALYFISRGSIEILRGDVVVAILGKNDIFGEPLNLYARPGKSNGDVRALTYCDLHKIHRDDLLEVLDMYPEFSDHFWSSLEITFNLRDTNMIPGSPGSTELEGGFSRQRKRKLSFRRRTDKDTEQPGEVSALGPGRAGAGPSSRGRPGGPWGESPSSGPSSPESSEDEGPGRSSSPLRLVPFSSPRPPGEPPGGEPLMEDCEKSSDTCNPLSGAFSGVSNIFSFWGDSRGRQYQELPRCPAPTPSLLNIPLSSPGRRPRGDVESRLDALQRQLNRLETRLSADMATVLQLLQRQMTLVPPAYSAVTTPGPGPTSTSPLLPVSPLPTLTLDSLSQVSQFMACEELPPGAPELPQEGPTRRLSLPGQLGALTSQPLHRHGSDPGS
Data set [10] deals with Neisseria gonorrhoeae. The data set is described as follows: Antibacterial activity against Neisseria gonorrhoeae after 18 to 20 hrs by CLSI-protocol based agar microdilution method. The format is functional.
A short description of data set [11]: Tmax in CD1 mouse at 10 mg/kg, po by LC-MS/MS analysis. It is filed as ADME, organism-based. Particulars: in vivo.
Data set [12] deals with Staphylococcus aureus. Kind of data set: Antibacterial activity against methicillin-resistant Staphylococcus aureus infected in Kunming mouse dosed subcutaneously at 0.5 and 4.0 hrs postinfection and measured at 7 to 14 days post treatment by Bliss method. The note with it: sc. It is filed as functional.
Data set [13] relates to Staphylococcus aureus. Kind of data set: Antibacterial activity against methicillin-sensitive Staphylococcus aureus infected in Kunming mouse dosed subcutaneously at 0.5 and 4.0 hrs postinfection and measured at 7 to 14 days post treatment by Bliss method. The format is functional. The note with it: sc.

Chain of DNA topoisomerase 2-alpha (P11388 whole entry): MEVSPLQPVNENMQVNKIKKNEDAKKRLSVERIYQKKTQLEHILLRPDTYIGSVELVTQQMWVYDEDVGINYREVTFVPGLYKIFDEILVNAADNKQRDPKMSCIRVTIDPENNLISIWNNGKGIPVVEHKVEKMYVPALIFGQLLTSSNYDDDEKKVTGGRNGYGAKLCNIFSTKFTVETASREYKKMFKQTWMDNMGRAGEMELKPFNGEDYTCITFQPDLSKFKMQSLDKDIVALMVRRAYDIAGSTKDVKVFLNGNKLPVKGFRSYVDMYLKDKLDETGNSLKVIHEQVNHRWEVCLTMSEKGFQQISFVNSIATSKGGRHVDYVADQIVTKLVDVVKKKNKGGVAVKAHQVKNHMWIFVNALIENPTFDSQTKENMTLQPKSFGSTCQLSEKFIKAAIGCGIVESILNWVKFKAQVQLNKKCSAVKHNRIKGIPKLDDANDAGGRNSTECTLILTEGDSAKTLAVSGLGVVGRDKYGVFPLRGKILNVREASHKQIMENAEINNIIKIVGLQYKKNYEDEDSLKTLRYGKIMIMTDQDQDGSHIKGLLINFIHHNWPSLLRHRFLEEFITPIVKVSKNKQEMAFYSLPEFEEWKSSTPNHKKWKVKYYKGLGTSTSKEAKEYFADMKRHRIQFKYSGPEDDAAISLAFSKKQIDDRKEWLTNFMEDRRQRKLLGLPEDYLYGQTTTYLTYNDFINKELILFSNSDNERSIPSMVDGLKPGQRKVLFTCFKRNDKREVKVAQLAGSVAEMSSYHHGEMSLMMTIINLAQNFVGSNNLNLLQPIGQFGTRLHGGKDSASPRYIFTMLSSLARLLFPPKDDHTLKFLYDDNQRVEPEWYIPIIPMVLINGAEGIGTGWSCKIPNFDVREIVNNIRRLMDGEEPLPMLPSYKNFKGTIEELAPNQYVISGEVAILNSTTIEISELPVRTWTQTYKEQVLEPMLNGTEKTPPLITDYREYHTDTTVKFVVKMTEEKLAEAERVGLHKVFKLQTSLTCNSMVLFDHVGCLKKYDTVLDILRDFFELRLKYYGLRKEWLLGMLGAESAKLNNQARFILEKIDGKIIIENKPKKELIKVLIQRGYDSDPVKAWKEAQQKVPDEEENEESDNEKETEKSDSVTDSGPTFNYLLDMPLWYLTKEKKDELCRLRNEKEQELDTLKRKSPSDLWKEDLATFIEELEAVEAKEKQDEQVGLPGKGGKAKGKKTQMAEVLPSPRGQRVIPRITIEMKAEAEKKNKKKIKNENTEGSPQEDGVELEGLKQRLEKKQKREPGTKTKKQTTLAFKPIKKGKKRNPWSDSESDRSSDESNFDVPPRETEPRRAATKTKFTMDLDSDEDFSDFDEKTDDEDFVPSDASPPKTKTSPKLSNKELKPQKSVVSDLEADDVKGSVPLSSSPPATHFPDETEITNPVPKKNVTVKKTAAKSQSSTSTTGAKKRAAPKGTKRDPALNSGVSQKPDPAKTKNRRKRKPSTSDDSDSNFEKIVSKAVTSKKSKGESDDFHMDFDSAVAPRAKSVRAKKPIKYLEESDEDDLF

One may read the IC50 as the concentration that inhibits the measured activity by half. High values mean weaker potency, low ones greater potency. Usually MIC stands for the lowest concentration that inhibits growth of the organism. For `C[C@@H]1CN2c3c(cc4c(N5CC6(CCC6)OC5=O)noc4c3F)CC3(C(=O)NC(=O)NC3=O)[C@H]2[C@H](C)O1`, the IC50 is more than 200 µM in [1] and 15.6 µM in [8]. The MIC in data set [2] lay in the range of 0.25 to 0.5 µg/mL (≈ 0.487 to 0.974 µM); in data set [3], 0.03 to 0.25 µg/mL (≈ 0.0584 to 0.487 µM); in data set [4], 0.125 to 0.25 µg/mL (≈ 0.243 to 0.487 µM); in data set [5] it was 0.06 to 1 µg/mL (≈ 0.117 to 1.95 µM); in [6], 0.25 to 1 µg/mL (≈ 0.487 to 1.95 µM); in [7], 0.06 to 0.25 µg/mL (≈ 0.117 to 0.487 µM).

A word on the MIC50: it is the lowest concentration that inhibits either 50% of growth or 50% of the strains tested, depending on the study. In general, MIC90 refers to an inhibitory concentration at the 90% level, which refers to growth in some studies and to a panel of isolates in others. A high value points to lower susceptibility. With `C[C@@H]1CN2c3c(cc4c(N5CCSC5=O)noc4c3F)CC3(C(=O)NC(=O)NC3=O)[C@H]2[C@H](C)O1`, the concentration for half-maximal inhibition (IC50) in [9] is more than 40 µM. For the same molecule, the minimal inhibitory concentration (MIC) in data set [2] is less than 0.03 µg/mL; in data set [3], less than 0.03 µg/mL; in data set [4], not above 0.03 µg/mL; in data set [5] it was less than 0.03 µg/mL; in data set [6], not above 0.03 µg/mL; in data set [7], less than 0.03 µg/mL. Moreover, the MIC50 in data set [10] amounted to 0.03 µg/mL (≈ 0.0613 µM). In addition, in data set [10], the MIC90 stood at 0.06 µg/mL (≈ 0.123 µM).

As a reminder, the Tmax is the time from dosing to the highest level. As for `COC[C@H]1CN(c2noc3c(F)c4c(cc23)CC2(C(=O)NC(=O)NC2=O)[C@H]2[C@H](C)O[C@H](C)CN42)C(=O)S1`, the IC50 in data set [9] was more than 40 µM; in data set [1] it was more than 200 µM; in data set [8], 9.4 µM. The MIC is 0.25 to 0.5 µg/mL (≈ 0.469 to 0.937 µM) in data set [2]; less than 0.03 µg/mL in data set [3]; 0.03 to 0.25 µg/mL (≈ 0.0562 to 0.469 µM) in [4]; 0.03 to 0.5 µg/mL (≈ 0.0562 to 0.937 µM) in data set [5]; 0.03 to 0.125 µg/mL (≈ 0.0562 to 0.234 µM) in data set [7]. For the same molecule, in [10], the MIC50 was 0.25 µg/mL (≈ 0.469 µM). In addition, in data set [10], the MIC90 worked out at 0.5 µg/mL (≈ 0.937 µM). Also, the Tmax in data set [11] is 34.8 min.

The term ED50 denotes the midpoint of the dose-response relation. Lower therefore signals greater potency. As to `CC(=O)NC[C@H]1CN(c2ccc(N3CCOCC3)c(F)c2)C(=O)O1` [LINEZOLID], the ED50 in data set [12] is 4.83 mg/kg; in data set [13], 4.53 mg/kg.

Molecule `COc1cccc2c1C(=O)c1c(O)c3c(c(O)c1C2=O)C[C@@](O)(C(=O)CO)C[C@@H]3O[C@H]1C[C@H](N)[C@H](O)[C@H](C)O1` [DOXORUBICIN] yielded an IC50 in data set [1] of 0.6 µM.

For `C[C@@H]1CN2c3c(cc4c(N5CC6(CC6)OC5=O)noc4c3C#N)CC3(C(=O)NC(=O)NC3=O)[C@H]2[C@H](C)O1`, the MIC was 4 µg/mL (≈ 7.9 µM) in [2]; 0.5 to 2 µg/mL (≈ 0.987 to 3.95 µM) in data set [3]; 1 to 4 µg/mL (≈ 1.97 to 7.9 µM) in data set [4]; 0.03 to 8 µg/mL (≈ 0.0592 to 15.8 µM) in [5]; 1 to 2 µg/mL (≈ 1.97 to 3.95 µM) in data set [6]; 0.25 to 2 µg/mL (≈ 0.494 to 3.95 µM) in [7].

As to `C[C@@H]1CN2c3c(cc4c(N5C(=O)SC[C@H]5C)noc4c3F)CC3(C(=O)NC(=O)NC3=O)[C@H]2[C@H](C)O1`, the MIC in data set [2] is 0.125 to 0.25 µg/mL (≈ 0.248 to 0.497 µM); in data set [3] it was 0.03 to 0.125 µg/mL (≈ 0.0596 to 0.248 µM); in data set [4], 0.25 to 0.5 µg/mL (≈ 0.497 to 0.993 µM); in [5] it was 0.03 to 0.5 µg/mL (≈ 0.0596 to 0.993 µM); in data set [6], 0.25 to 1 µg/mL (≈ 0.497 to 1.99 µM); in data set [7], 0.03 to 0.125 µg/mL (≈ 0.0596 to 0.248 µM).

In the case of `C[C@@H]1CN2c3c(cc4c(N5C[C@H](c6ccccc6)SC5=O)noc4c3F)CC3(C(=O)NC(=O)NC3=O)[C@H]2[C@H](C)O1`, the MIC was 4 µg/mL (≈ 7.07 µM) in data set [2]; 0.125 to 0.5 µg/mL (≈ 0.221 to 0.884 µM) in [3]; 0.5 to 1 µg/mL (≈ 0.884 to 1.77 µM) in data set [4]; 0.125 to 2 µg/mL (≈ 0.221 to 3.54 µM) in data set [5]; 1 to 2 µg/mL (≈ 1.77 to 3.54 µM) in data set [6]; 0.5 to 2 µg/mL (≈ 0.884 to 3.54 µM) in [7].

As to `C[C@@H]1CN2c3c(cc4c(N5C[C@@H](C)SC5=O)noc4c3F)CC3(C(=O)NC(=O)NC3=O)[C@H]2[C@H](C)O1`, the IC50 in data set [9] was more than 40 µM; in [1], more than 200 µM; in data set [8], 15.3 µM. Also, the MIC is less than 0.03 µg/mL in data set [2], 0.03 to 0.06 µg/mL (≈ 0.0596 to 0.119 µM) in data set [3], 0.03 to 0.25 µg/mL (≈ 0.0596 to 0.497 µM) in data set [5] and not above 0.03 µg/mL in data set [6]. The molecule also came in with an MIC50 in data set [10] of 0.03 µg/mL (≈ 0.0596 µM). Moreover, in data set [10], the MIC90 worked out at 0.125 µg/mL (≈ 0.248 µM). Besides, the Tmax in data set [11] turned out to be 34.8 min.
